The values below come from patent publication US20090074867A1, “ORALLY DISPERSIBLE PHARMACEUTICAL COMPOSITION AND PROCESS FOR THE PREPARATION THEREOF” (priority 2004, published 2009).

The nature of this data set: Dissolution / microcapsule releasing test in phosphate buffer pH 7.2, 100 rpm, UV spectrophotometer. The data set is classed as physicochemical. Here is the method:
The test was carried out in phosphate buffer at pH 7.2 (obtained by dissolving 6.8 g of KH2 PO4 and 1.4 g of NaOH in 1 litre of demineralised water) at 100 rpm for the microcapsule dissolution test and 50 rpm for the tablet dissolution test according to the method described in European Pharmacopoeia, Ed. 4.4 of the April 2003. • dissolution in phosphate buffer at pH 7.2 (obtained by dissolving 6.8 g of KH2PO4 and 1.4 g of NaOH in 1 litre of demineralised water) at 100 rpm; the average of 5 tests has given the following results: • 30.1% after 5 minutes, 58.6% after 10 minutes, 71.0% after 15 minutes, 78.8% after 20 minutes, 86.9% after 30 minutes, • palatability: the palatability test was carried out as indicated above administering 200 mg of Ibuprofen BP 80 to each individual. […] The microcapsules obtained in Examples 1 to 3 (MC1, MC2 and MC3) were subjected to the releasing test in phosphate buffer by means of a UV spectrophotometer. In order to assist comparison the results obtained on AI as such in the same test are shown in the bottom line (see previous Experimental Part).

`CC(C)Cc1ccc(C(C)C(=O)O)cc1` (centres unmarked) [Ibuprofen BP 80, Ibuprofen]: the “AI released, 5 min” value stood at 30.1%; the “AI released, 10 min” value came to 58.6%; the “AI released, 15 min” value came to 71.0%; the “AI released, 20 min” value is reported as 78.8%. Besides, the “AI released, 30 min” value turned out to be 86.9%. The “AI released, 0 min” value (0 min) is 0%. In addition, where the note is “listed as AI”, the “AI released, 5 min” value was 30.10%; the “AI released, 10 min” value came out at 58.60%; the “AI released, 15 min” value is given as 71.00%; the “AI released, 20 min” value was 78.80%. For the same compound, under “listed as AI”, the “AI released, 30 min” value is recorded as 86.90%.
